Normalised response data for 10 compounds are collected here from the supplement of paper PMC4862054.

Common to all, as to assay: normalised response (% of control), CellTiter-Glo; higher = more viable cells (100 = DMSO, 0 = benzethonium chloride kill control)
Holding throughout (conditions): incubation time: 72 h

In one test the test system is HCC1937. In outline:
(§1)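 Two readouts were taken after 72 h: CellTox Green fluorescence (485/520 nm) first, then CellTiter-Glo luminescence after 10 min at room temperature. Breast cancer cell lines had been seeded as 20 µl suspension into 384-well plates holding compound at 5 concentrations in 10-fold steps across a compound-specific 10,000-fold range. Each value is a normalised signal at a single concentration, with plates scaled to 0.1 % DMSO (100) and a positive kill control (0).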

The next test deals with CAL-120. In outline:
as §1

In another test the test system is CAL-85-1. In outline: as §1
Another test relates to HDQ-P1. An outline of the steps: as §1
The next test relates to BT-549. In outline:
as §1

In another test the test system is BT-474. An outline of the steps:
as §1

Another test deals with MCF-10A. In outline: as §1
The subject of the next test is HCC1143. In outline: as §1
The subject of the next test is CAL-148. In outline:
as §1

The subject of the next test is CAL-51. In outline: as §1
In the next test the test system is MDA-MB-453. An outline of the steps: as §1
The subject of a further test is HCC1599. In outline: as §1
The test system of another test is MDA-MB-231. An outline of the steps:
as §1

Another test relates to Hs578T. In outline:
as §1

Each structure is given as a SMILES string.

`Cc1cc(Nc2nc(N[C@@H](C)c3ncc(F)cn3)ncc2Cl)[nH]n1` [AZD1480] (100 nM): the normalised response with HCC1937 worked out at 101%; with CAL-120, 97.3%; in the test on CAL-85-1 it was 100%; with HDQ-P1, 102%; in the test with BT-549, 105%; with BT-474 it was 99.7%. The normalised response in the test on MCF-10A amounted to 93.4%; with HCC1143 it was 107%; in the test with CAL-148, 87.5%; with CAL-51, 117%; in the test with MDA-MB-453, 94.1%; in the test on HCC1599, 111%. The results for the normalised response in the test on MDA-MB-231 and in the test on Hs578T were 97.8% and 101%, respectively.

As for `CC1(C)CCC(c2ccc(Cl)cc2)=C(CN2CCN(c3ccc(C(=O)NS(=O)(=O)c4ccc(N[C@H](CCN5CCOCC5)CSc5ccccc5)c(S(=O)(=O)C(F)(F)F)c4)cc3)CC2)C1` [Navitoclax] (1000 nM), the normalised response with HCC1937 was 83.4%; with CAL-120 it was 67.8%; in the test with CAL-85-1 it was 90%; with HDQ-P1, 73%; with BT-549, 92.5%; in the test with BT-474, 58.1%. Further, the normalised response in the test on MCF-10A is 97.8%; in the test on HCC1143, 82.9%; with CAL-148 it was 78.5%; in the test on CAL-51, 90.8%; with MDA-MB-453, 80.9%; in the test with HCC1599, 97.3%. The normalised response was 49.2% in the test with MDA-MB-231 and 93.1% with Hs578T.

Take `Cc1cn(-c2cc(NC(=O)c3ccc(C)c(Nc4nccc(-c5cccnc5)n4)c3)cc(C(F)(F)F)c2)cn1` [Nilotinib] (1000 nM): the normalised response worked out at 96.5% with HCC1937; 100% in the test with CAL-120; 102% with CAL-85-1; 104% in the test on HDQ-P1; 109% in the test on BT-549; 92.9% in the test with BT-474. In addition, the normalised response in the test on MCF-10A came out at 107%; in the test with HCC1143, 94%; in the test with CAL-148, 84.4%; in the test on CAL-51, 70.9%; in the test on MDA-MB-453 it was 105%; with HCC1599 it was 105%. The figures for the normalised response in the test on MDA-MB-231 and with Hs578T were 96.5% and 105%, respectively.

Regarding `CO[C@@]12[C@H](COC(N)=O)C3=C(C(=O)C(C)=C(N)C3=O)N1C[C@@H]1N[C@@H]12` [Mitomycin C] (1000 nM), the normalised response was found to be 95.2% in the test with HCC1937; 94.1% with CAL-120; 95.6% with CAL-85-1; 97% in the test with HDQ-P1; 65.7% in the test on BT-549; 90.2% in the test with BT-474. The normalised response with MCF-10A is 93%; in the test on HCC1143, 99.4%; in the test on CAL-148 it was 90.9%; in the test on CAL-51 it was 60.2%; with MDA-MB-453 it was 97.9%; in the test on HCC1599, 84.2%. Besides, the normalised response worked out at 97.4% in the test with MDA-MB-231 and 102% with Hs578T.

Consider `CCNC(=O)CCC/C=C\C[C@@H]1[C@@H](/C=C/[C@@H](O)CCc2ccccc2)[C@H](O)C[C@@H]1O` [Bimatoprost] (550 nM), for which the normalised response is 94.5% in the test with HCC1937; 97.1% in the test with CAL-120; 96.3% with CAL-85-1; 95.4% in the test with HDQ-P1; 104% in the test with BT-549; 96.7% with BT-474. Moreover, the normalised response in the test with MCF-10A was found to be 102%; with HCC1143, 92.5%; with CAL-148, 93.6%; with CAL-51, 102%; in the test on MDA-MB-453 it was 93.2%; in the test on HCC1599, 105%. The normalised response in the test on MDA-MB-231 came out at 97.1%; in the test with Hs578T it was 93%.

For the compound `CC(=O)[C@]1(O)Cc2c(O)c3c(c(O)c2[C@@H](O[C@H]2C[C@H](N)[C@H](O)[C@H](C)O2)C1)C(=O)c1ccccc1C3=O` [Idarubicin] (100 nM), the normalised response in the test with HCC1937 worked out at 98%; with CAL-120, 99.7%; with CAL-85-1 it was 91%; in the test with HDQ-P1, 103%; with BT-549, 62.6%; with BT-474, 92.3%. In addition, the normalised response was 98.2% with MCF-10A; 102% with HCC1143; 63.5% in the test with CAL-148; 42.6% with CAL-51; 140% with MDA-MB-453; 123% in the test with HCC1599. The values for the normalised response with MDA-MB-231 and with Hs578T were 94.7% and 82.5%, respectively.

Consider `CNC(=O)c1ccccc1Sc1ccc2c(/C=C/c3ccccn3)n[nH]c2c1` [Axitinib] (1000 nM), for which the normalised response with HCC1937 came to 88.6%; in the test on CAL-120, 95.3%; with CAL-85-1, 117%; with HDQ-P1, 96.8%; in the test on BT-549 it was 103%; in the test on BT-474, 102%. Further, the normalised response with MCF-10A was 95%; in the test with HCC1143, 94.6%; in the test on CAL-148, 103%; in the test with CAL-51 it was 59.4%; with MDA-MB-453, 87.9%; in the test with HCC1599, 82%. Also, the normalised response with MDA-MB-231 was 111%; with Hs578T, 93.8%.

For `CC(C)C[C@H](NC(=O)[C@@H](COC(C)(C)C)NC(=O)[C@H](Cc1ccc(O)cc1)NC(=O)[C@H](CO)NC(=O)[C@H](Cc1c[nH]c2ccccc12)NC(=O)[C@H](Cc1cnc[nH]1)NC(=O)[C@@H]1CCC(=O)N1)C(=O)N[C@@H](CCCNC(=N)N)C(=O)N1CCC[C@H]1C(=O)NNC(N)=O` [Goserelin] (1000 nM), the normalised response with HCC1937 is 98.2%; in the test on CAL-120, 106%; in the test with CAL-85-1, 98.2%; with HDQ-P1, 101%; with BT-549, 98.6%; with BT-474, 101%. Further, the normalised response with MCF-10A is 96.5%; in the test on HCC1143 it was 92.3%; in the test with CAL-148 it was 93.1%; with CAL-51, 100%; in the test on MDA-MB-453, 106%; in the test on HCC1599, 106%. In addition, the normalised response in the test on MDA-MB-231 is 100%; in the test with Hs578T it was 99.4%.

On to `CCNC(=O)c1noc(-c2cc(C(C)C)c(O)cc2O)c1-c1ccc(CN2CCOCC2)cc1` [NVP-AUY922] (100 nM), for which the normalised response with HCC1937 amounted to 28.7%; in the test on CAL-120, 47.5%; in the test on CAL-85-1, 20.5%; in the test on HDQ-P1, 23.5%; with BT-549 it was 41.1%; in the test on BT-474, 25%. The normalised response was 15.2% with MCF-10A; 36.8% with HCC1143; 27.6% with CAL-148; 14.8% in the test with CAL-51; 32.3% in the test with MDA-MB-453; 71% with HCC1599. The normalised response in the test on MDA-MB-231 came to 24.6%; in the test with Hs578T it was 39.1%.

Regarding `O=C(CCCCCCC(=O)Nc1ccccc1)NO` [Vorinostat] (1000 nM), the normalised response in the test on HCC1937 was determined as 85.2%; with CAL-120 it was 85.9%; with CAL-85-1, 93.7%; in the test with HDQ-P1, 85%; in the test with BT-549, 100%; in the test with BT-474, 89.4%. The normalised response in the test with MCF-10A amounted to 104%; with HCC1143, 90.2%; in the test with CAL-148, 90.6%; with CAL-51 it was 72.2%; with MDA-MB-453, 61.2%; with HCC1599, 98.9%. Further, the normalised response in the test on MDA-MB-231 worked out at 85.4%; in the test with Hs578T it was 95.8%.
